We go through twelve molecules from US5254550A, “Prolinal derivatives and pharmaceutical compositions thereof” (Ono Pharmaceutical Co., Ltd., priority 1986, dated 1993).

Experiment [1] has as its target T1, prolyl endopeptidase (Bos taurus, UniProt Q9XTA2).
T1 construct: prolyl endopeptidase which was purified from bovine brain; from tissue; host or cells: bovine brain (purified by the method of J. Biochem., 94, 1179 (1983))
As to the kind of experiment: Prolyl Endopeptidase Inhibitory Activity in Vitro. In kind it is biochemical. The settings on record: prolyl endopeptidase purified from bovine brain; substrate N-benzyloxycarbonyl-glycyl-prolyl-p-nitroanilide; pH 7.5, 37° C., 15 mins preincubation, 405 nm; read-out: Concentration for 50% inhibition IC50. The method, then: Inhibitory activity of prolyl endopeptidase was measured by the following test system.
A mixed solution of 20 mM tris-HCl buffer (pH 7.5; 935 μl; containing 10 mM EDTA and 10 mM mercaptoethanol), a solution of a compound of the present invention in DMSO (10 μl) and a solution of prolyl endopeptidase which was purified from bovine brain (0.13 unit; prepared by the method described in J. Biochem., 94, 1179 (1983)) in tris-HCl buffer (15 μl) was preincubated for 15 mins at 37° C.
To the solution, 5 mM of N-benzyloxycarbonyl-glycyl-prolyl-p-nitroanilide (40 μl) in a mixture of 40% dioxane-60% water was added. The solution was incubated for 1 min at the same temperature.
Optical absorption (a1) at 405 nm of the solution, and optical absorption (a2) at 405 nm of the solution after more 30 mins' incubation at 37° C. were measured.
Optical absorptions (b1 and b2) of the solutions using DMSO instead of the solution of the compound of the present invention were also measured.
Inhibitory ratio was calculated by the following expression and IC50 (required concentration for 50% inhibition) was obtained (See Protein, Nucleic acid and Enzyme 25(6), 513, 1980). [formula]

The subject of experiment [2] is prolyl endopeptidase. To be noted: See J. Neurochem., 41, 69 (1983); cited from earlier work.

SMILES strings stand for the structures. Residues, ends and D or L forms follow the SMILES beside them. *: point of attachment. Cbz = O=C(OCc1ccccc1)*; CH2Cl = ClC*

T1 sequence (Q9XTA2 whole entry): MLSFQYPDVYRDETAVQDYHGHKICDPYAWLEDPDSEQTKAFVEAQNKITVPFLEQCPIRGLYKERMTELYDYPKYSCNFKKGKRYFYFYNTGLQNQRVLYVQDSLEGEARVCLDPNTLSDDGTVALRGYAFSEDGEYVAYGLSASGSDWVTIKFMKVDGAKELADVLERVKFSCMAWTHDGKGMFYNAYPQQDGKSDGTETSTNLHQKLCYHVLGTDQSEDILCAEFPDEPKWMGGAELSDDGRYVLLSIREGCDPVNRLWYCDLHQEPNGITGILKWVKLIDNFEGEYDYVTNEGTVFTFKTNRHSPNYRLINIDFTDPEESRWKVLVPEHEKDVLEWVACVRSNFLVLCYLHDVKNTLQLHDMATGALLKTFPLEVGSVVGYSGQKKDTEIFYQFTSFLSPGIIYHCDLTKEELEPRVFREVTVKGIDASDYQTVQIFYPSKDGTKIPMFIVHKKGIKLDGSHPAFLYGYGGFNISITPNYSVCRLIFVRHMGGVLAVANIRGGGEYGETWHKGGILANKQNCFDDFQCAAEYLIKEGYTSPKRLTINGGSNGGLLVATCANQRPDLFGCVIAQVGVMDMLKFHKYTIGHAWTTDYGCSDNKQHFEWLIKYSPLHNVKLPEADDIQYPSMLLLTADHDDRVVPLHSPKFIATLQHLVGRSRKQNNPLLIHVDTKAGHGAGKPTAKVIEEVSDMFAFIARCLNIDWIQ

In the case of `O=C[C@@H]1CCCN1C(=O)CCC(=O)NCC(c1ccccc1)c1ccccc1` [1 (bb), N-[3-[N-(2,2-diphenylethyl)carbamoyl]propanoyl]-L-prolinal], the IC50 on prolyl endopeptidase [1] was found to be 1200 nM.
Still for that read-out and setting: the result for `O=C[C@@H]1CCCN1C(=O)CCC(=O)NCc1ccccc1` [1 (a), N-[3-(N-benzylcarbamoyl)propanoyl)-L-prolinal] reads 230 nM.
Same read-out and setting: the result for `O=C[C@@H]1CCCN1C(=O)CCC(=O)NCCCCCc1ccccc1` [1 (h), N-[3-[N-(5-phenylpentyl)carbamoyl]propanol]-L-prolinal] reads 70 nM.
On the same count and under the same terms, the same measure for `Cc1ccc(CNC(=O)CCC(=O)N2CCC[C@H]2C=O)cc1` [2 (a), N-[3-[N-(4-methylbenzyl)-carbamoyl]propanoyl]-L-prolinal]: 23 nM; for `O=C[C@@H]1CCCN1C(=O)CCC(=O)NCCc1ccccc1` [Example 1, N-[3-[N-(2-phenylethyl)carbamoyl]propanoyl]-L-prolinal]: 130 nM; for `O=C[C@@H]1CCCN1C(=O)CCC(=O)NCc1ccccc1Cl` [2 (e), N-[3-[N-(2-chlorobenzyl)-carbamoyl]propanoyl]-L-prolinal]: 160 nM.
For the molecule `O=C[C@@H]1CCCN1C(=O)CCC(=O)NCc1ccco1` [2 (dd), N-[3-[N-(2-furylmethyl)-carbamoyl]propanoyl]-L-prolinal], at prolyl endopeptidase [1], the IC50 was found to be 790 nM.
For the molecule `CN(Cc1ccccc1)C(=O)C=CC(=O)N1CCC[C@H]1C=O` [1 (s), N-[3-(N-benzyl-N-methylcarbamoyl)acryloyl]-L-prolinal], the IC50 on prolyl endopeptidase [1] was found to be 1900 nM.
As for `O=C(NCC(=O)N1CCC[C@H]1C(=O)CCl)OCc1ccccc1` [N-benzyloxycarbonyl-glycyl-L-proplyl-chloromethane] (Cbz-Gly-Pro-CH2Cl), the “inhibition of prolyl endopeptidase (in words)” value with prolyl endopeptidase [2] is reported as “strongly inhibit”.
Turning to `Cc1ccc(CN(C(=O)CCC(=O)N2CCC[C@H]2C=O)c2ccccc2)cc1` [2 (n), N-[3-[N-(4-methylphenyl-methyl)-N-phenyl-carbamoyl]propanoyl]-L-prolinal], the IC50 on prolyl endopeptidase [1] stood at 1.9 nM.
The same measure, in the same setting: the same measure for `O=C[C@@H]1CCCN1C(=O)[C@@H]1CCC[C@H]1C(=O)NCc1ccccc1` [1 (x), N-[(1R,2R)-2-(N-benzylcarbamoyl)cyclopentane-1-carbonyl]-L-prolinal]: 14 nM.
With `O=C[C@@H]1CCCN1C(=O)CCC(=O)NCc1cccc2ccccc12` [2 (y), N-[3-[N-(1-naphthyl-methyl)carbamoyl]propanoyl]-L-prolinal], at prolyl endopeptidase [1], the IC50 is 43 nM.
